# From US12161726B2, “Biomimetic vesicles and uses thereof” (Ohio State Innovation Foundation, priority 2018, dated 2024)
# Assays:
# restenosis = settings: rat model, earlier study (ref 5); cited from earlier work
# [1] = system: neointimal hyperplasia (IH) in balloon-injured carotid arteries; experiment: Morphometric analysis of neointima after carotid artery balloon angioplasty; format: in vivo, rat; settings: two i.v. injections (day 0 and 4), 14 days after angioplasty
# Protocol: Materials and Methods: Rat carotid artery balloon angioplasty. Carotid artery balloon angioplasty was performed in male Sprague-Dawley rats (Charles River; about 400 g) as previously described (5, 20). Briefly, rats were anesthetized with isoflurane (5% for inducing and 2.5% for maintaining anesthesia). A longitudinal incision was made in the neck and carotid arteries were exposed. A 2-F balloon catheter (Edwards Lifesciences, Irvine, CA) was inserted through an arteriotomy on the left external carotid artery. To produce arterial injury, the balloon was inflated at a pressure of 2 atm and withdrawn to the carotid bifurcation and this action was repeated three times. The external carotid artery was then permanently ligated, and blood flow was resumed. Drug-loaded biomimetic nanoclusters or compound solutions were injected via rat tail vein. […]
# Materials and Methods: Morphometric analysis of neointima. […] Planimetric parameters as follows were measured on the sections and calculated using Image J: area inside external elastic lamina (EEL area), area inside internal elastic lamina (IEL area), lumen area, intima area (=IEL area−lumen area), and media area (=EEL area−IEL area). Intimal hyperplasia was quantified as a ratio of intima area versus media area. […] The means from all the animals in each treatment group were then averaged, and the standard error of the mean (SEM) was calculated. […]
# human umbilical vein ECs = settings: cited from earlier work
# [2] = Drug loading level (HPLC / UV-Vis); format: physicochemical; settings: drug loaded into nanoclusters
# Protocol: (d). Characterizations. 1H NMR spectra of all polymer products were recorded on a Varian Mercury Plus 300 spectrometer in DMSO-d6 or CDCl3 at 25° C. Molecular weights (Mn and Mw) and polydispersity indices (PDI) of the polymers were determined by a gel permeation chrornatographer (GPC) equipped with a refractive index detector, a viscometer detector, and a light scattering detector (Viscotek, USA), DMF with 0.01 M of LiBr was used as the mobile phase with. Fourier transform infrared (FT-IR) spectra were recorded on a Bruker Tensor 27 FT-IR spectrometer. The sizes and morphologies of the NPs were studied by dynamic light scattering (DLS, ZetaSizer Nano ZS90, Malvern Instruments, USA) and transmission electron microscopy (TEM, FEI Tecnai G2 F30 TWIN 300 KV, E.A, Fischione Instruments, Inc. USA). The zeta potentials were measured by ZetaSizer Nano ZS90 (Malvern Instruments, USA). The rapamycin loading level was measured by high-performance liquid chromatography (HPLC) using ultraviolet (UV) detection at 278 nm. The JQ1 loading level was measured by UV-Vis spectrometer at 323 nm.
# [3] = system: pro-inflammatory activation of ECs and monocyte recruiting; settings: hypercholesterolemic murine model of atherosclerosis; cited from earlier work
# [4] = In vitro drug release in PBS (dialysis bag); format: physicochemical; settings: from drug-loaded biomimetic nanoclusters, PBS pH 7.4, 37° C
# Protocol: The in vitro drug release profiles from both rapamycin-loaded and JQ1-loaded biomimetic nanoclusters were studied in PBS (pH=7.4) (19). Briefly, drug-loaded biomimetic nanoclusters in the PBS (1 mg/mL, 5 mL) were enclosed in a cellulose membrane dialysis bag (molecular weight cut-off, 8 kDa). The dialysis bags were immersed in 100 mL of PBS, which was then kept in a horizontal laboratory shaker (100 rpm) at 37° C. At predetermined time intervals, 5 mL samples were collected and replaced with the same volume of PBS. The amounts of rapamycin and JQ1 in the collected samples were measured by HPLC and UV-Vis spectrometer, respectively, as indicated above.
smiles,measurement,setting,value
Cc1sc2c(c1C)C(c1ccc(Cl)cc1)=N[C@@H](CC(=O)OC(C)(C)C)c1nnc(C)n1-2 [JQ1],Inhibition of restenosis,restenosis,effective inhibitor of restenosis
same,Effect on IH (I/M ratio),[1],failed to mitigate IH
same,"TNFα-induced pathogenic EC activation (E-selectin, VCAM1, NF-κB translocation)",human umbilical vein ECs,inhibits TNFα-induced pathogenic EC activation
same,Drug loading level,[2],21.5%
same,Pro-inflammatory activation of ECs and monocyte recruiting in vivo,[3],inhibitory effects
same,In vitro drug release profile,[4],released in a sustainable manner without a burst release
